Assay results taken from patent US20260273033A1, “NOVEL LIPID NANOPARTICLE FORMULATIONS FOR DELIVERY OF NUCLEIC ACIDS” (CureVac SE, priority 2023, published 2026).

Key:
[1] = Immune responses of mRNA vaccines in vivo, DPhyPE versus DSPC as neutral lipid; conditions: DPhyPE versus DSPC as neutral lipid in LNP compositions
[2] = in vivo; cited from earlier work

Molecule | immune responses of mRNA vaccines in vivo, neutral lipid comparison [1] | accumulation in tissue [2] | excretion [2]
CC(C)CCCC(C)CCCC(C)CCCC(C)CC(=O)OC[C@H](COP(=O)(O)OCCN)OC(=O)CC(C)CCCC(C)CCCC(C)CCCC(C)C (stereo partly drawn) [DPhyPE, 1,2-diphytanoyl-sn-glycero-3-phosphoethanolamine] | clear advantage over DSPC | – | –
poly(2-methyl-2-oxazoline) [PMOZ] | – | no significant accumulation in tissue | rapidly excreted by the kidney
